Data from US20130158073A1, “Methods Of Diminishing Co-Abuse Potential” (priority 2004, published 2013).
Counter-ions that a name gives are not always drawn.

Key:
[1] = cited from earlier work
male Sprague-Dawley rats = details: coadministered with 10% w/v ethanol
[2] = co-administration of racemic methylphenidate and ethanol

## CCOC(=O)C(c1ccccc1)C1CCCCN1 (centres unmarked) [Ethylphenidate]
[1]; [2]
  isomer excreted in the urine: primarily as the l-isomer

## COC(=O)[C@H](c1ccccc1)[C@H]1CCCCN1 [d-MPH, dexmethylphenidate HCl]
Male Sprague-Dawley rats; i.p.
  potency compared to ethanol/d,l-MPH: half as potent

## COC(=O)C(c1ccccc1)C1CCCCN1 (racemic) [d,l-MPH, d,l-methylphenidate HCl]
[1]; [2]
  isomer excreted in the urine: primarily as the d-isomer
[1]; human subjects, co-administration of a single dose of methylphenidate and ethanol
  ethylphenidate metabolite in plasma and urine: ethylphenidate was also detected in plasma and urine
Male Sprague-Dawley rats; i.p.
  potency compared to ethanol/cocaine for discriminative stimulus effects: equipotent
  potency compared to ethanol/cocaine for response rate effects: equipotent
Male Sprague-Dawley rats; i.p. 15 minutes before session
  rates of response compared with saline control test sessions, at doses producing full ethanol/cocaine-lever responding: do not decrease rates of response

## COC(=O)[C@@H](c1ccccc1)[C@@H]1CCCCN1 [l-methylphenidate]
[1]; [2]
  transesterification after co-administration of racemic methylphenidate and ethanol: transesterifies enantioselectively to l-ethylphenidate
